Earlier results in patent US6022703A, “Expression of DNA sequences derived from nocardioform microorganisms” (Genzyme Corporation, priority 1993, dated 2000).

System: Nocardioform cholesterol oxidase
Conditions: at 25°

CC(C)CCC[C@@H](C)[C@H]1CC[C@H]2[C@@H]3CC=C4C[C@@H](O)CC[C@]4(C)[C@H]3CC[C@]12C [cholesterol]
Km: 14 µM
